The values that follow come from publication PMC6016545 (Journal of medicinal chemistry, 2016).

Like-named read-outs stand apart in the source and are kept apart here.

The subject of one series is PSMA(+) PC3-PIP cells. Conditions: cited from earlier work.
Series [1] concerns the target T1, PSMA (Homo sapiens, UniProt Q04609). Briefly: PSMA inhibition, IC50 determination.
Series [2] addresses T1, PSMA. As to the kind of experiment: Mode of inhibition study. The note with it: reversible, slowly reversible, or irreversible.

By IC50 is commonly meant the concentration needed to halve the response being measured. High values mean weaker potency, low ones greater potency.

T1 sequence (Q04609 whole entry): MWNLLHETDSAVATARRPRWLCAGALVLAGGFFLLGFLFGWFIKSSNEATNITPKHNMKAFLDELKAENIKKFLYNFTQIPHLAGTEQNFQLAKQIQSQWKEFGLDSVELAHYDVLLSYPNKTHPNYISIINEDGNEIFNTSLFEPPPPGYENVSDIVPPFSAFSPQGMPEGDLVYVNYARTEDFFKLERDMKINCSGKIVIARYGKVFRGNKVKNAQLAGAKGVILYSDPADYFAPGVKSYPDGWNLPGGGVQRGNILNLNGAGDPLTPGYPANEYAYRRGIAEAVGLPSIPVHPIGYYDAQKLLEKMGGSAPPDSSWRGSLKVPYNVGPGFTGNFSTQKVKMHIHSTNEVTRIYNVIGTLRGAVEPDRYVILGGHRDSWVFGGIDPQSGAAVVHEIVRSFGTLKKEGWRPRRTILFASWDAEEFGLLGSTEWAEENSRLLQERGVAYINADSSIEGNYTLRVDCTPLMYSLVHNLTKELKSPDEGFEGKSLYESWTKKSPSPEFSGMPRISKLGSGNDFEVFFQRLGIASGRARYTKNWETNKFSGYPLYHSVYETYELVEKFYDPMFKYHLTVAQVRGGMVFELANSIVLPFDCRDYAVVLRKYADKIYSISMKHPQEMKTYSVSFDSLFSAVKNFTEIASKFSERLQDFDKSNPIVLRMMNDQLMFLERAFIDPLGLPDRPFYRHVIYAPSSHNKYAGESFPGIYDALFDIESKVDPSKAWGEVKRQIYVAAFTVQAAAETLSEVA

Turning to `O=C(O)CC[C@H](NC(=O)N[C@@H](CSCc1ccc([18F])cc1)C(=O)O)C(=O)O` [[^18F]DCFBC, N[N-[(S)-1,3-dicarboxypropyl]carbamoyl]-4-[^18F] fluorobenzyl-L-cysteine], in the series with PSMA(+) PC3-PIP cells (PSMA(+) PC3-PIP cells), the tumor uptake is recorded as 4.7% and the tumor/blood ratio is 13.

As to `O=C(O)CCC(NC(=O)NC(CCCCNC(=O)c1ccc([18F])nc1)C(=O)O)C(=O)O` (stereo not shown) [[^18F]DCFPyL, 2-(3-(1-carboxy-5-[(6-[^18F]-fluoropyridine-3-carbonyl)amino]pentyl)ureido)pentanedioic acid], in the series on PSMA(+) PC3-PIP cells (2 h), the liver uptake is given as 2.14% and the renal uptake is 15.7%. The tumor uptake with PSMA(+) PC3-PIP cells (2 h in PC3-PIP cells) is listed as 39.4%.

Consider `NCCCCCC(=O)NCCCCCC(=O)N[C@@H](CCC(=O)N[C@H](CCCOP(=O)(O)NC(CCC(=O)O)C(=O)O)C(=O)O)C(=O)O` (stereo partly drawn) [compound 3, 2-(((S)-((4R)-4-(4-(6-(6-Aminohexanamido)-hexanamido)-4-carboxybutanamido)-4-carboxybutoxy)-(hydroxy)phosphoryl)amino)pentanedioic Acid], for which, on PSMA [1], inhibition was half-maximal at 7.8 nM (IC50). This lies in the single-digit nanomolar range.

In the case of `O=C(O)CC[C@H](NP(=O)(O)OCCC[C@H](NC(=O)CC[C@H](NC(=O)CCCCCNC(=O)c1ccc(F)cc1)C(=O)O)C(=O)O)C(=O)O` [compound 5], at PSMA [1], half-maximal inhibition (IC50) was put at 0.4 nM. Further, the “mode of binding to PSMA” value on PSMA [2] is on record as “irreversible”.

In turn, `O=C(O)CCC(NP(=O)(O)OCCC[C@@H](NC(=O)CC[C@H](NC(=O)CCCCCNC(=O)CCCCCNC(=O)c1ccc(F)cc1)C(=O)O)C(=O)O)C(=O)O` (stereo partly drawn) [compound 6, 2-(((S)-(((22R)-17,22-Dicarboxy-1-(4-fluoro-phenyl)-1,8,15,20-tetraoxo-2,9,16,21-tetraazapentacosan-25-yl)oxy)(hydroxy)phosphoryl)amino)pentanedioic Acid] returned an IC50 against PSMA [1] of 0.9 nM. The “mode of binding to PSMA” value at PSMA [2] is recorded as “irreversible”.
